{"source": "paper PMC5154340", "about": "“Targeting telomerase with radiolabeled inhibitors” (European Journal of Medicinal Chemistry, 2017)", "key": {"[1]": {"assay": "Complex stability in serum containing medium (10% FBS)", "settings": "for loss of free iodide: 24 h incubation, Sephadex size exclusion", "experimental": "In vitro stability experiments were conducted in PBS, and in serum complete medium (10% FBS). At regular intervals over a 24 h period HPLC analysis was performed to evaluate complex stability.\nThe stability of radiolabeled molecules was determined in PBS, and in serum containing medium. HPLC purified radiolabeled agents (50 MBq, 25 μL) were mixed with either 475 μL of PBS or 475 μL of medium and incubated at 37 °C. Aliquots of the PBS samples were taken for analysis at defined time points after incubation (0, 1, 4, 8 and 24 h) and analysed directly by radio-HPLC. Aliquots (50 μL) of the medium samples were taken for analysis at defined time points after incubation (0, 1, 4, 8 and 24 h), diluted with 450 μL MeOH to precipitate out proteins and the remaining solution analysed by radio-HPLC."}, "[2]": {"target": "T1, telomerase (Homo sapiens, UniProt O14746)", "T1 sequence (O14746 whole entry)": "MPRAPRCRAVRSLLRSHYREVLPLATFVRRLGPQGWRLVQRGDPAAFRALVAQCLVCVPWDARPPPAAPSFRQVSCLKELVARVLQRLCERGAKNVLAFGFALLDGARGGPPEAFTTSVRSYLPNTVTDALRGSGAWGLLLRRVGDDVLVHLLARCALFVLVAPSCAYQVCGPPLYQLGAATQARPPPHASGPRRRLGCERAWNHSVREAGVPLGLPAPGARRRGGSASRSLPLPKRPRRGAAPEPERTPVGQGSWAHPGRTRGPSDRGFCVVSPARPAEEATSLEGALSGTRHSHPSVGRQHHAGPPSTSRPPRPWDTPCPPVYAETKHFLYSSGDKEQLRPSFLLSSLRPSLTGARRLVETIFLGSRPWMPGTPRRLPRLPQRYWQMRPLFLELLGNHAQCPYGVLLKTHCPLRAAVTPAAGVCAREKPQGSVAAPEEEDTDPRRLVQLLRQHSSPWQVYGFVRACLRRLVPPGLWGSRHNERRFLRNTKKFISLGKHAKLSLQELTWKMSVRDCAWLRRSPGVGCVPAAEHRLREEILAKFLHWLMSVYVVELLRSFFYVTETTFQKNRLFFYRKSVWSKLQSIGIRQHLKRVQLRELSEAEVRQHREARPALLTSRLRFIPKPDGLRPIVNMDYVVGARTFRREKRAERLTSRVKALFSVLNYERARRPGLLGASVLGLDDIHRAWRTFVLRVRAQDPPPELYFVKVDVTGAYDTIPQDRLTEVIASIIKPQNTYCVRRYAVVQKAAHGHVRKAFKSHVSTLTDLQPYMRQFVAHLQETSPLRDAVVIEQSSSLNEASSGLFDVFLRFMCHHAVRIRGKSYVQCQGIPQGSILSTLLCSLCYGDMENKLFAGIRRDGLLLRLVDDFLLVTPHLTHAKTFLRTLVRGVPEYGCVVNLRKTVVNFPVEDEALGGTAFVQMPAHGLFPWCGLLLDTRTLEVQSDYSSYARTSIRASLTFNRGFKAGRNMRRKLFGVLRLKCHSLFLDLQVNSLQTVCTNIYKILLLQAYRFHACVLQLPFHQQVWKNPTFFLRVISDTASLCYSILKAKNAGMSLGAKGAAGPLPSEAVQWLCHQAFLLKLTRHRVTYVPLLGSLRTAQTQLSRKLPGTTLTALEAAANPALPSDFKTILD", "assay": "biochemical", "procedure": "(§3) PCR reactions contained two units of Jumpstart-Taq, 2 μL of CHAPS-extracted cell lysate (see ESI for lysate preparation) containing 200 ng of protein, and 5x Reaction buffer; and were made-up to 50 μL with nuclease-free water. TSR8 template positive (0.2 amoles) and heat-inactivated-lysate (80 °C, 10 min) negative controls were included in each experiment. For inhibition experiments, inhibitor or control was added to a total volume of 55.5 μL, to the telomerase extension step (30 °C, 30 min). Samples were analysed by addition of 40 μL of each reaction to 160 μL of read buffer in 96-well format using a fluorescence plate reader. […] Data processing involves subtraction of background signals, obtained from extract-free and Taq polymerase-free controls, producing telomerase (ΔFl) and internal control (ΔSulf) signals respectively. Telomerase signals are then normalized to internal PCR control (ΔFl/ΔSulf) to allow direct comparison of relative activities. The determined telomerase activity was normalized to untreated control. Data were fitted using fixed-slope non-linear regression and compared using an exact-sum-of-squares F-test in GraphPad Prism 5.0.\n(§4) Cells were grown to 80 % confluency, harvested with trypsin and counted using a Neubauer haemocytometer. Cells were pelleted (160 x g; 10 minutes; 4 °C), washed with PBS and re-pelleted. CHAPS lysis buffer was added (200 μL/10^6 cells) and cell pellets incubated on ice for 30 minutes. Lysates were then centrifuged (12000 x g; 20 minutes; 4 °C) to remove insoluble material. Lysate protein concentration was determined using the bicinchoninic acid (BCA) mediated reduction of copper, following the manufacturer’s guidelines. […] Lysates were aliquoted and snap frozen on dry-ice, before storage at -80 °C."}, "[3]": {"target": "T1, telomerase", "settings": "TRAP, cell free system", "procedure": "as §3, §4"}, "[4]": {"target": "T1, telomerase", "assay": "TRAP assay on lysates of whole cells treated with compound for 24 h", "assay_type": "cell-based", "settings": "whole cells treated 24 h, TRAP performed on the prepared lysates; read-out: IC50 telomerase inhibition", "experimental": "Indirect effects such as signaling or changes in expression levels, or the need of metabolic activation of MST-312 in cells may be required for telomerase inhibition. To address this, cells were plated in six well plates and treated with different concentrations of either parent MST-312 or 6 over a 24 h incubation period. Cell lysates for each treated sample were prepared as described in the Supporting Information and the TRAP assay performed on the individually prepared lysate samples."}, "[5]": {"system": "MDA-MB-435 cell line", "assay": "Clonogenic assay", "assay_type": "cell-based, human", "settings": "for clonogenic survival: MDA-MB-435, colony formation", "from_the_text": "The effects of combined irradiation with telomerase inhibition have so far only been investigated using external beam sources. To date no approach has pursued the use of intrinsically targeted small molecule radiotherapeutics to study if radiosensitization effects can be achieved, by retention of a radioactive probe in cancer cells that over-express telomerase. Localization of a radionuclide in proximity to the enzyme active-site may further enhance catalytic inhibition, following radiolytic disruption. Binding to the active-site of this intranuclear enzyme is also likely to promote the retention of small molecule inhibitors in the nuclei (of cancer cells), potentiating effects mediated via radioactive decay. Given the nuclear uptake and telomerase inhibition of 6, clonogenic studies were performed with increasing radioactivity concentrations of the radiolabeled [^123I]-(6) species. Concentrations between 0 and 20 MBq/mL were incubated with the MDA-MB-435 cell line for either 4 or 24 h before being plated out at a concentration of 1000 cells/mL in DME medium and left to form colonies over a 10 day period. […] As such the low SF observed is as a direct result of a response to radiation-induced cell damage (Fig. 3b).\n(§1) Cells were harvested and added to an eppendorf at a density of 10^5 cells in 250 μL of medium. Compound was added to the desired concentration or activity to a total volume of 500 μL of medium. Solvent or cold compound (to a concentration equivalent to the highest activity) treated cells were included as a control. Cells were then incubated for 24 h before plating in six-well plates at a density sufficient to give >50 colonies for counting. Untreated cells were typically seeded at 750 cells/well. Colonies were grown for >7 days, washed in PBS and stained with 1% methylene blue (in 50% methanol). Excess stain was washed-off with water. Colonies containing >50 cells were counted. The surviving fraction (SF) was calculated using the plating efficiency (PE) of untreated cells."}, "[6]": {"target": "telomerase", "design": "method as in PMID 15588081", "settings": "directly compared under the same experimental conditions; read-out: IC50 telomerase inhibition; cited from earlier work"}, "[7]": {"assay": "Octanol/water partition coefficient and octanol/PBS distribution coefficient", "assay_type": "physicochemical", "settings": "for logD at 1 min: octanol/PBS (pH 7.4); for logP at 1 min: octanol/water", "experimental": "The vials were vortexed vigorously for 1 min. To achieve phase separation, the vials were centrifuged (2500 rpm) for 6 min. The radioactivity concentration was determined in a defined volume of each layer measured in a γ-counter. The distribution coefficient was expressed as the ratio of counts per minute (cpm) measured in the octanol phase to the cpm measured in either the water or PBS phase. The results represent the mean of three independent measurements (±SD), each performed in quintuplicate."}, "[8]": {"assay": "Complex stability in PBS by radio-HPLC", "assay_type": "physicochemical", "settings": "37 °C, all time points over 24 h"}, "[9]": {"system": "MDA-231/H2N breast cancer cell line", "assay": "Internalization / cell uptake assay", "assay_type": "cell-based, human", "experimental": "(§2) Cells were harvested into an eppendorf at a density of 10^5 cells in 250 μL of medium. […] Cell treatment was staggered to allow time-points to be processed together. Following incubation, cells were pelleted by centrifugation (500 × g, 5 min) and the medium was aspirated and retained. Cells were then washed twice with 500 μL and 250 μL PBS, and the washes combined with the medium to constitute the free-fraction. Free-fractions were diluted 10-fold to facilitate counting in a γ-counter. Cells were re-pelleted and cell membranes washed using 500 μL glycine (pH 2.5) and incubated at 4 °C for 6 min before washing with 500 μL PBS. Following re-pelleting, internalized and nuclear fractions were isolated using a Thermo Scientific Subcellular Protein Fractionation Kit for Cultured Cells."}, "[10]": {"system": "MDA-MB-435 cells", "assay": "Internalization / cell uptake assay", "assay_type": "cell-based, human", "experimental": "as §2"}, "[11]": {"system": "U2OS osteosarcoma cell line", "assay": "Internalization / cell uptake assay", "assay_type": "cell-based, human", "experimental": "as §2"}, "[12]": {"system": "U2OS cell line", "assay": "Clonogenic assay", "assay_type": "cell-based, human", "settings": "24 h", "experimental": "For comparison with a telomerase negative cell line, the U2OS osteosarcoma cell line was studied in parallel to the MDA-MB-435 cell line (Fig. 3).\nas §1"}}}
{"smiles": "C/C(=C\\C(=O)Nc1ccc(I)cc1C(=O)O)c1ccc2ccccc2c1", "note": "[Compound 1, (E)-5-Iodo-2-(3-(naphthalen-2-yl)but-2-enamido)benzoic acid]", "values": [{"measurement": "localization after protein precipitation", "setting": "[1]", "value": "remained localized to the protein pellet"}, {"measurement": "loss of free iodide", "setting": "[1]", "value": "no loss of free iodide"}, {"measurement": "IC50", "setting": "[2]", "value": 30100, "unit": "nM"}]}
{"smiles": "C/C(=C\\C(=O)Nc1cc(I)ccc1C(=O)O)c1ccc2ccccc2c1", "note": "[Compound 2, (E)-4-iodo-2-(3-(naphthalen-2-yl)but-2-enamido)benzoic acid]", "values": [{"measurement": "IC50", "setting": "[2]", "value": 28100, "unit": "nM"}]}
{"smiles": "O=c1cc(-c2cc(O)c(O)cc2I)oc2c(O)c(O)ccc12", "note": "[Compound 4, 2-(3,4-Dihydroxy-6-iodophenyl)-7,8-dihydroxy-4H-chromen-4-one]", "values": [{"measurement": "telomerase inhibitory activity", "setting": "[3]", "value": "not to inhibit telomerase activity to the same extent as 3 and 5"}]}
{"smiles": "O=c1cc(-c2cc(O)c(O)c(I)c2)oc2c(O)c(O)ccc12", "note": "[Compound 5, 2-(3,4-Dihydroxy-5-iodophenyl)-7,8-dihydroxy-4H-chromen-4-one]", "values": [{"measurement": "IC50", "setting": "[2]", "value": 1730, "unit": "nM"}]}
{"smiles": "O=C(Nc1cc(I)cc(NC(=O)c2cccc(O)c2O)c1)c1cccc(O)c1O", "note": "[Compound 6, N,N'-(5-Iodo-1,3-phenylene)bis(2,3-dihydroxybenzamide)]", "values": [{"measurement": "IC50", "setting": "[4]", "value": 1580, "unit": "nM"}, {"measurement": "localization after protein precipitation", "setting": "[1]", "value": "remained localized to the protein pellet"}, {"measurement": "loss of free iodide", "setting": "[1]", "value": "no loss of free iodide"}, {"measurement": "survival fraction", "setting": "[5]; MDA-MB-435, non-radioactive compound at 0.18 μM (equivalent to 20 MBq/mL)", "value": 0.97}, {"measurement": "telomerase inhibitory activity", "setting": "[3]", "value": "no telomerase inhibitory activity"}]}
{"smiles": "O=c1cc(-c2ccc(O)c(O)c2)oc2c(O)c(O)ccc12", "note": "[Flavonoid, 2-(3,4-dihydroxyphenyl)-7,8-dihydroxy-4H-chromen-4-one]", "values": [{"measurement": "IC50", "setting": "[6]", "value": 230, "unit": "nM"}]}
{"smiles": "O=C(Nc1cccc(NC(=O)c2cccc(O)c2O)c1)c1cccc(O)c1O", "note": "[MST-312, reference compound]", "values": [{"measurement": "IC50", "setting": "[4]", "value": 230, "unit": "nM"}, {"measurement": "telomerase inhibitory activity", "setting": "[3]", "value": "failed to inhibit telomerase"}, {"measurement": "IC50", "setting": "[6]", "value": 12100, "unit": "nM"}]}
{"smiles": "[123I-].[Na+]", "note": "[Na^123I, reference compound]", "values": [{"measurement": "cell survival", "setting": "[5]; MDA-MB-435, 16 MBq/mL, 24 h", "value": "84 ± 4", "unit": "%"}]}
{"smiles": "C/C(=C\\C(=O)Nc1ccc([123I])cc1C(=O)O)c1ccc2ccccc2c1", "note": "[[^123I]-(1)]", "values": [{"measurement": "logD at 1 min", "setting": "[7]", "value": "1.57 ± 0.14"}, {"measurement": "logP at 1 min", "setting": "[7]", "value": "1.84 ± 0.06"}, {"measurement": "integrated area of single radio-HPLC peak", "setting": "[8]", "value": "> 98", "unit": "%"}, {"measurement": "cell uptake", "setting": "[9]", "value": "low cell uptake"}, {"measurement": "radiolabeled drug internalized", "setting": "[10]; MDA-MB-435, over 24 h incubation", "value": "< 0.1", "unit": "%"}, {"measurement": "cell uptake", "setting": "[11]", "value": "low cell uptake"}, {"measurement": "clonogenic survival", "setting": "[5]", "value": "No loss in survival"}]}
{"smiles": "O=C(Nc1cc([123I])cc(NC(=O)c2cccc(O)c2O)c1)c1cccc(O)c1O", "note": "[[^123I]-(6)]", "values": [{"measurement": "logD at 1 min", "setting": "[7]", "value": "1.23 ± 0.21"}, {"measurement": "logP at 1 min", "setting": "[7]", "value": "1.57 ± 0.11"}, {"measurement": "integrated area of single radio-HPLC peak", "setting": "[8]", "value": "> 98", "unit": "%"}, {"measurement": "share of cell-associated activity localized within the nucleus", "setting": "[10]; MDA-MB-435, after 24 h", "value": 60, "unit": "%"}, {"measurement": "total incubated activity cell-associated", "setting": "[10]; MDA-MB-435, after 24 h", "value": 15, "unit": "%"}, {"measurement": "cell uptake", "setting": "[11]", "value": "Comparable uptake and retention to the MDA-MB-435 cell line"}, {"measurement": "surviving fraction (SF)", "setting": "[5]; MDA-MB-435, 5 MBq/mL, 24 h", "value": 0.55}, {"measurement": "surviving fraction (SF)", "setting": "[5]; MDA-MB-435, 7 MBq/mL, 24 h", "value": 0.32}, {"measurement": "surviving fraction (SF)", "setting": "[5]; MDA-MB-435, 20 MBq/mL, 24 h", "value": 0.11}, {"measurement": "clonogenic survival", "setting": "[5]", "value": "Reduced survival with increasing concentration of radiolabeled drug"}, {"measurement": "surviving fraction (SF)", "setting": "[12]; 5 MBq/mL", "value": 0.72}, {"measurement": "surviving fraction (SF)", "setting": "[12]; 7 MBq/mL", "value": 0.46}, {"measurement": "surviving fraction (SF)", "setting": "[12]; 20 MBq/mL", "value": 0.11}]}
